Results from ChEMBL document CHEMBL1140860, “Synthesis and evaluation of dihydroartemisinin and dihydroartemisitene acetal dimers showing anticancer and antiprotozoal activity” (Bioorg Med Chem, 2009).
pIC50: −log10 of the molar value.

What was measured:
Format in all cases: functional, cell-based
Settings in all cases: Homo sapiens
HUVEC [1] = test: Antiangiogenic activity against HUVEC assessed as growth inhibition by NCI antiangiogenesis assay
HUVEC [2] = test: Antiangiogenic activity against HUVEC assessed as inhibition of VEGF-induced cell migration by NCI antiangiogenesis assay
HUVEC [3] = test: Antiangiogenic activity against HUVEC assessed as inhibition of capillary-like structure formation by NCI antiangiogenesis assay

SMILES | pIC50 (HUVEC [1]) | pIC50 (HUVEC [2]) | pIC50 (HUVEC [3])
CO[C@@H]1[C@H](OC(=O)NC(=O)CCl)CC[C@]2(CO2)[C@H]1[C@@]1(C)O[C@@H]1CC=C(C)C [O-CHLOROACETYLCARBAMOYLFUMAGILLOL] | 5.50 | 6.30 | 6.00
CC(=O)O[C@H]1C(=O)[C@@]2(C)[C@H]([C@H](OC(=O)c3ccccc3)[C@]3(O)C[C@H](OC(=O)[C@H](O)[C@@H](NC(=O)c4ccccc4)c4ccccc4)C(C)=C1C3(C)C)[C@]1(OC(C)=O)CO[C@@H]1C[C@@H]2O [PACLITAXEL] | 5.78 | 7.00 | 7.30
